Key:
Assay type in all cases: in vivo
[1] = tested on: sedge, umbrella (small-flower umbrella sedge, Cyperus difformis); test: Test B flooded paddy test sedge, umbrella; conditions: Table B, Flood, 250 g ai/ha, scale 0 to 100
In short: (§1)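 Water-applied paddy treatment: compound dosed into 3 cm flood on 2-leaf plants, read visually versus controls after 13 to 15 d.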

[2] = tested on: pigweed (Amaranthus retroflexus); test: Test A postemergence pigweed; conditions: 0 to 100 scale, 0 is no effect, 100 is complete control
In short: (§2)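 Compounds in non-phytotoxic solvent with surfactant, applied preemergence as directed soil spray on seeds in loam–sand blend, or postemergence to plants 2–10 cm tall at one- to two-leaf stage. Greenhouse ~10 d, then visual injury versus untreated controls, 0 (no effect) to 100 (complete control).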

[3] = tested on: pigweed (Amaranthus retroflexus); test: Test A preemergence pigweed; conditions: 0 to 100 scale, 0 no effect, 100 complete control
In short: as §2

[4] = tested on: barnyardgrass (Echinochloa crus-galli); test: Test A postemergence barnyardgrass; conditions: 0 to 100 scale, 0 is no effect, 100 is complete control
In short: as §2

[5] = tested on: barnyardgrass (Echinochloa crus-galli); test: Test A preemergence barnyardgrass; conditions: 0 to 100 scale; for Barnyardgrass plant response rating: 125 g ai/ha, 0 no effect, 100 complete control; for Plant response rating, Barnyardgrass: 500 g ai/ha, 0 is no effect, 100 is complete control
In short: as §2

[6] = tested on: foxtail, giant (giant foxtail, Setaria faberii); test: Test A postemergence foxtail, giant; conditions: 0 to 100 scale, 0 is no effect, 100 is complete control
In short: as §2

[7] = tested on: crabgrass, large (large crabgrass, Digitaria sanguinalis); test: Test A preemergence crabgrass, large; conditions: 0 to 100 scale; for Crabgrass, Large plant response rating: 125 g ai/ha, 0 no effect, 100 complete control; for Plant response rating, Crabgrass, Large: 500 g ai/ha, 0 is no effect, 100 is complete control
Description: (§3) Seeds of plant species selected from barnyardgrass (Echinochloa crus-galli), kochia (Kochia scoparia), ragweed (common ragweed, Ambrosia elatior), ryegrass, Italian (Italian ryegrass, Lolium multiflorum), crabgrass, large (large crabgrass, Digitaria sanguinalis), foxtail, giant (giant foxtail, Setaria faberii), morningglory (Ipomoea spp.), pigweed (Amaranthus retroflexus), velvetleaf (Abutilon theophrasti), wheat (Triticum aestivum), and corn (Zea mays) were planted into a blend of loam soil and sand and treated preemergence with a directed soil spray using test chemicals formulated in a non-phytotoxic solvent mixture which included a surfactant.
(§4) At the same time, plants selected from these crop and weed species and also blackgrass (Alopecurus myosuroides), and galium (catchweed bedstraw, Galium aparine) were planted in pots containing the same blend of loam soil and sand and treated with postemergence applications of test chemicals formulated in the same manner. Plants ranged in height from 2 to 10 cm and were in the one- to two-leaf stage for the postemergence treatment. Treated plants and untreated controls were maintained in a greenhouse for approximately 10 d, after which time all treated plants were compared to untreated controls and visually evaluated for injury. Plant response ratings, summarized in Table A, are based on a 0 to 100 scale where 0 is no effect and 100 is complete control. A dash (-) response means no test result.

rice (Oryza sativa) = test: Test B flooded paddy test rice; conditions: Table B, Flood, 250 g ai/ha, scale 0 to 100
In short: as §1

[8] = tested on: ducksalad (Heteranthera limosa); test: Test B flooded paddy test ducksalad; conditions: Table B, Flood, 250 g ai/ha, scale 0 to 100
In short: as §1

corn (Zea mays) [9] = test: Test A preemergence corn; conditions: 0 to 100 scale; for Corn plant response rating: 125 g ai/ha, 0 no effect, 100 complete control; for Plant response rating, Corn: 500 g ai/ha, 0 is no effect, 100 is complete control
Description: as §3, §4

[10] = tested on: velvetleaf (Abutilon theophrasti); test: Test A preemergence velvetleaf; conditions: 0 to 100 scale, 0 no effect, 100 complete control
Description: as §3, §4

[11] = tested on: crabgrass, large (large crabgrass, Digitaria sanguinalis); test: Test A postemergence crabgrass, large; conditions: 0 to 100 scale, 0 is no effect, 100 is complete control
Description: as §3, §4

[12] = tested on: foxtail, giant (giant foxtail, Setaria faberii); test: Test A preemergence foxtail, giant; conditions: 0 to 100 scale, 0 no effect, 100 complete control
In short: as §2

[13] = tested on: wheat (Triticum aestivum); test: Test A postemergence wheat; conditions: 0 to 100 scale, 0 is no effect, 100 is complete control
In short: as §2

corn (Zea mays) [14] = test: Test A postemergence corn; conditions: 0 to 100 scale, 0 is no effect, 100 is complete control
In short: as §2

[15] = tested on: wheat (Triticum aestivum); test: Test A preemergence wheat; conditions: 0 to 100 scale, 0 no effect, 100 complete control
Description: as §3, §4

[16] = tested on: morningglory (Ipomoea spp.); test: Test A preemergence morningglory; conditions: 0 to 100 scale, 0 no effect, 100 complete control
Description: as §3, §4

[17] = tested on: morningglory (Ipomoea spp.); test: Test A postemergence morningglory; conditions: 0 to 100 scale, 0 is no effect, 100 is complete control
Description: as §3, §4

[18] = tested on: velvetleaf (Abutilon theophrasti); test: Test A postemergence velvetleaf; conditions: 0 to 100 scale, 0 is no effect, 100 is complete control
Description: as §3, §4

[19] = tested on: barnyardgrass (Echinochloa crus-galli); test: Test B flooded paddy test barnyardgrass; conditions: Table B, Flood, 250 g ai/ha, scale 0 to 100
In short: as §1

SMILES | Plant response rating [1] | Plant response rating, Pigweed ([2]; 125 g ai/ha) | Plant response rating, Pigweed ([2]; 500 g ai/ha) | Pigweed plant response rating ([3]; 125 g ai/ha) | Pigweed plant response rating ([3]; 500 g ai/ha) | Plant response rating, Barnyardgrass ([4]; 125 g ai/ha) | Plant response rating, Barnyardgrass ([4]; 500 g ai/ha) | Barnyardgrass plant response rating [5] | Plant response rating, Barnyardgrass [5] | Plant response rating, Foxtail, Giant ([6]; 125 g ai/ha) | Plant response rating, Foxtail, Giant ([6]; 500 g ai/ha) | Crabgrass, Large plant response rating [7] | Plant response rating, Crabgrass, Large [7] | Plant response rating (rice (Oryza sativa)) | Plant response rating [8] | Corn plant response rating (corn (Zea mays) [9]) | Plant response rating, Corn (corn (Zea mays) [9]) | Velvetleaf plant response rating ([10]; 125 g ai/ha) | Velvetleaf plant response rating ([10]; 500 g ai/ha) | Plant response rating, Crabgrass, Large ([11]; 125 g ai/ha) | further results
O=C1NCCC(c2ccc(F)cc2)C1C(=O)Nc1ccccc1C(F)(F)F (racemic) [Compound 4] | 0 | 0 | 0 | 0 | 0 | 0 | 20 | 0 | 50 | 0 | 0 | 90 | 90 | 0 | 0 | 0 | 0 | 0 | 0 | 40 | Plant response rating, Crabgrass, Large ([11]; 500 g ai/ha): 70; Foxtail, Giant plant response rating ([12]; 125 g ai/ha): 10; Foxtail, Giant plant response rating ([12]; 500 g ai/ha): 70; Plant response rating, Wheat ([13]; 125 g ai/ha): 0; Plant response rating, Wheat ([13]; 500 g ai/ha): 0; Plant response rating, Corn (corn (Zea mays) [14]; 125 g ai/ha): 0; Plant response rating, Corn (corn (Zea mays) [14]; 500 g ai/ha): 0; Wheat plant response rating ([15]; 125 g ai/ha): 0; Wheat plant response rating ([15]; 500 g ai/ha): 0; Morningglory plant response rating ([16]; 125 g ai/ha): 0; Morningglory plant response rating ([16]; 500 g ai/ha): 0; Plant response rating, Morningglory ([17]; 125 g ai/ha): 0; Plant response rating, Morningglory ([17]; 500 g ai/ha): 0; Plant response rating, Velvetleaf ([18]; 125 g ai/ha): 0; Plant response rating, Velvetleaf ([18]; 500 g ai/ha): 0; Plant response rating [19]: 0
O=C1NCCC(c2ccc(F)cc2)C1C(=O)Nc1ccccc1F (racemic) [Compound 5] | 0 | 0 | 0 | 0 | 0 | 0 | 30 | 0 | 30 | 0 | 0 | 60 | 90 | 0 | 0 | 0 | 0 | 0 | 0 | 0 | Plant response rating, Crabgrass, Large ([11]; 500 g ai/ha): 0; Foxtail, Giant plant response rating ([12]; 125 g ai/ha): 30; Foxtail, Giant plant response rating ([12]; 500 g ai/ha): 50; Plant response rating, Wheat ([13]; 125 g ai/ha): 0; Plant response rating, Wheat ([13]; 500 g ai/ha): 0; Plant response rating, Corn (corn (Zea mays) [14]; 125 g ai/ha): 0; Plant response rating, Corn (corn (Zea mays) [14]; 500 g ai/ha): 0; Wheat plant response rating ([15]; 125 g ai/ha): 0; Wheat plant response rating ([15]; 500 g ai/ha): 0; Morningglory plant response rating ([16]; 125 g ai/ha): 0; Morningglory plant response rating ([16]; 500 g ai/ha): 0; Plant response rating, Morningglory ([17]; 125 g ai/ha): 0; Plant response rating, Morningglory ([17]; 500 g ai/ha): 0; Plant response rating, Velvetleaf ([18]; 125 g ai/ha): 0; Plant response rating, Velvetleaf ([18]; 500 g ai/ha): 0; Plant response rating [19]: 0
O=C1NCCC(c2ccc(F)c(F)c2)C1C(=O)Nc1ccccc1C(F)(F)F (racemic) [Compound 6] | 0 | 0 | 30 | 0 | 0 | 0 | 50 | 60 | 80 | 30 | 70 | 90 | 90 | 0 | 60 | 0 | 0 | 0 | 0 | 50 | Plant response rating, Crabgrass, Large ([11]; 500 g ai/ha): 80; Foxtail, Giant plant response rating ([12]; 125 g ai/ha): 60; Foxtail, Giant plant response rating ([12]; 500 g ai/ha): 90; Plant response rating, Wheat ([13]; 125 g ai/ha): 0; Plant response rating, Wheat ([13]; 500 g ai/ha): 0; Plant response rating, Corn (corn (Zea mays) [14]; 125 g ai/ha): 0; Plant response rating, Corn (corn (Zea mays) [14]; 500 g ai/ha): 0; Wheat plant response rating ([15]; 125 g ai/ha): 0; Wheat plant response rating ([15]; 500 g ai/ha): 0; Morningglory plant response rating ([16]; 125 g ai/ha): 0; Morningglory plant response rating ([16]; 500 g ai/ha): 0; Plant response rating, Morningglory ([17]; 125 g ai/ha): 0; Plant response rating, Morningglory ([17]; 500 g ai/ha): 0; Plant response rating, Velvetleaf ([18]; 125 g ai/ha): 0; Plant response rating, Velvetleaf ([18]; 500 g ai/ha): 0; Plant response rating [19]: 0

From patent publication US9944602B2, “Piperidinone herbicides” (E. I. DU PONT DE NEMOURS AND COMPANY, priority 2014, dated 2018)
